Data from patent US10759740B2, “Antibacterial agents” (Rutgers, The State University of New Jersey, priority 2016, dated 2020).

Columns and labels:
[1] = tested on: Lactobacillus rhamnosus 160; experiment: MIC broth microdilution (Example 3); type: cell-based; details: planktonic
Protocol: (§1) G. vaginalis ATCC 14019 strain was grown overnight in Brain Heart Infusion broth (Difco, Sparks, Md.) supplemented with 3% horse serum (sBHI) (JRH Biosciences, KS), while BHI supplemented with 1% glucose (BHIG) was used for biofilm formation assays. Each experiment using G. vaginalis was performed anaerobically (10% hydrogen, 5% carbon dioxide, and 85% nitrogen) within anaerobic glove boxes (Coy Laboratory Products, Inc., Grass Lake, Mich., USA). Three species of vaginal Lactobacillus were used in this study to evaluate the possible harmful effects of CAms on beneficial bacteria: Lactobacillus plantarum ATCC 39268, Lactobacillus rhamnosus 160 (provided by Dr. Aroutcheva, Rush University Medical Center) and Lactobacillus gasseri ATCC 33323; all were grown for 18-24 h in DeMan, Rogosa and Sharpe broth (MRS Difco B D, Franklin Lakes, N.J., USA) under aerobic conditions at 37° C. For lactobacilli biofilm formation, MRS broth supplemented with 1% glucose and 2% sucrose (Fisher Scientific, Waltham, Mass., USA) was utilized.
(§2) To prepare a stock solution, the CAm compounds were dissolved in ddH2O and incubated at 37° C. with shaking at 250 rpm for 10 min. Then, the solution was serially diluted twofold with sBHI broth to determine the MIC and with BHIG broth to identify the MIC-B/MBC-B against planktonic and biofilm cells, respectively.
(§3) According to Clinical and Laboratory Standards Institute (CLSI 2010), the MIC is defined as the lowest concentration of antimicrobial compound producing no visible growth or complete inhibition of bacterial growth during 24 h. To determine MIC values, the broth microdilution assay was performed according to Algburi et al. (Algburi et al., 2015. Path Dis 73(5)) with minor modifications. Briefly, the overnight-grown cells were diluted with their suitable culture medium to approach ˜10^6 CFU/ml. The number of bacterial cells was identified using spot plate method (Turovskiy et al., 2012. Infect Dis Obstet Gynecol 2012:284762). The CAms were serially diluted twofold with sBHI into a non-tissue culture 96-well microplate plate (Falcon, Corning Incorporated, Corning, N.Y., USA) resulting in a final volume of 100 μl for each well. Aliquots of 100 μl of the diluted cell suspension (˜10^6 CFU/ml) were added to each well of a microplate that was treated with different concentrations of CAms. To avoid culture medium evaporation, 75 μl of mineral oil (Sigma-Aldrich, St. Louis, Mo.) was added to each treated well. The microplate was then transferred to the plate reader (Model 550, Bio-Rad Laboratories, Hercules, Calif., USA) and incubated at 37° C. for 24-36 h. The kinetic reading was statistically analyzed, and the MIC and sub-MIC of each CAm compound were determined.

[2] = tested on: Lactobacillus plantarum ATCC 39268; experiment: MIC broth microdilution (Example 3); type: cell-based; details: planktonic
Protocol: as §1, §2, §3

[3] = tested on: Lactobacillus gasseri ATCC 33323; experiment: MIC broth microdilution (Example 3); type: cell-based; details: planktonic
Protocol: as §1, §2, §3

[4] = tested on: Prevotella bivia ATCC 29303; experiment: MIC broth microdilution (Example 3); type: cell-based; details: planktonic, anaerobic
Protocol: as §3, with “The antimicrobial activity of CAms was also tested against Peptostreptococcus anaerobius ATCC 27337, Mobiluncus curtisii ATCC 35241 and Prevotella bivia ATCC 29303, all of which, in addition to G. vaginalis, are the most commonly isolated anaerobes from BV-infected women. These anaerobes were maintained within the anaerobic chamber and transferred daily into fresh sBHI. To prepare a stock solution, the CAm compounds were dissolved in ddH2O and incubated at 37° C. with shaking at 250 rpm for 10 min. Then, the solution was serially diluted twofold with sBHI broth to determine the MIC and with BHIG broth to identify the MIC-B/MBC-B against planktonic and biofilm cells, respectively. According” for “According”

[5] = tested on: Mobiluncus curtisii ATCC 35241; experiment: MIC broth microdilution (Example 3); type: cell-based; details: planktonic, anaerobic
Protocol: as §3, with “The antimicrobial activity of CAms was also tested against Peptostreptococcus anaerobius ATCC 27337, Mobiluncus curtisii ATCC 35241 and Prevotella bivia ATCC 29303, all of which, in addition to G. vaginalis, are the most commonly isolated anaerobes from BV-infected women. These anaerobes were maintained within the anaerobic chamber and transferred daily into fresh sBHI. To prepare a stock solution, the CAm compounds were dissolved in ddH2O and incubated at 37° C. with shaking at 250 rpm for 10 min. Then, the solution was serially diluted twofold with sBHI broth to determine the MIC and with BHIG broth to identify the MIC-B/MBC-B against planktonic and biofilm cells, respectively. According” for “According”

[6] = tested on: Peptostreptococcus anaerobius ATCC 27337; experiment: MIC broth microdilution (Example 3); type: cell-based; details: planktonic, anaerobic
Protocol: as §3, with “The antimicrobial activity of CAms was also tested against Peptostreptococcus anaerobius ATCC 27337, Mobiluncus curtisii ATCC 35241 and Prevotella bivia ATCC 29303, all of which, in addition to G. vaginalis, are the most commonly isolated anaerobes from BV-infected women. These anaerobes were maintained within the anaerobic chamber and transferred daily into fresh sBHI. To prepare a stock solution, the CAm compounds were dissolved in ddH2O and incubated at 37° C. with shaking at 250 rpm for 10 min. Then, the solution was serially diluted twofold with sBHI broth to determine the MIC and with BHIG broth to identify the MIC-B/MBC-B against planktonic and biofilm cells, respectively. According” for “According”

L. plantarum biofilm = experiment: Minimum biofilm bactericidal concentration (MBC-B); type: cell-based, Lactobacillus plantarum; details: pre-formed biofilm, ≥3 log reduction
Protocol: as §1
(§4) This assay was performed according to Algburi et al. (Algburi et al., 2015. Path Dis 73(5)) with minor modifications: the overnight-grown G. vaginalis was diluted to approximately 10^7 CFU/ml. For the biofilm formation assay, aliquots of 200 μl were added into a 96-well tissue culture microplate, sealed by amplification tape (Nalge Nunc International, Rochester, N.Y., USA) and incubated for 24-36 h at 37° C. After incubation, the planktonic cells were removed by gently washing the biofilm twice with 200 μl of fresh broth. The biofilm was then treated with 200 μl of a predetermined concentration of the tested compound. The microplate was incubated for 24 h at 37° C. under anaerobic conditions. After incubation, the antimicrobials (supernatant) were discarded and the biofilm was washed twice with fresh BHIG broth. The biofilm was then disrupted by vigorous pipetting, in order to determine the number of biofilm-associated cells using the spot plate method.

G. vaginalis ATCC 14019 = experiment: MIC broth microdilution (Example 3); type: cell-based, Gardnerella vaginalis; details: planktonic, sBHI, anaerobic
Protocol: as §1, §2
According to Clinical and Laboratory Standards Institute (CLSI 2010), the MIC is defined as the lowest concentration of antimicrobial compound producing no visible growth or complete inhibition of bacterial growth during 24 h. To determine MIC values, the broth microdilution assay was performed according to Algburi et al. (Algburi et al., 2015. Path Dis 73(5)) with minor modifications. Briefly, the overnight-grown cells were diluted with their suitable culture medium to approach ˜10^6 CFU/ml. The number of bacterial cells was identified using spot plate method (Turovskiy et al., 2012. Infect Dis Obstet Gynecol 2012:284762). […]

L. rhamnosus biofilm = experiment: Minimum biofilm bactericidal concentration (MBC-B); type: cell-based, Lactobacillus rhamnosus; details: pre-formed biofilm, ≥3 log reduction
Protocol: as §1, §4

Compound	MIC L. rhamnosus [1]	MIC L. plantarum [2]	MIC L. gasseri [3]	MIC P. bivia [4]	MIC M. curtisii [5]	MIC Pep. anaerobius [6]	MBC-B L. plantarum (L. plantarum biofilm)	MIC G. vaginalis (G. vaginalis ATCC 14019)	MBC-B L. rhamnosus (L. rhamnosus biofilm)
CCCCCCCCCCOC(C(=O)NCCN)C(OCCCCCCCCCC)C(=O)NCCN.Cl.Cl (stereo not drawn) [5b]	13.3 µM	25.7 µM	4.4 µM	6.6 µM	5.4 µM	1.6 µM	>850 µM	1.1 µM	>850 µM
CCCCCCCC(=O)OC(C(=O)NCCN)C(OC(=O)CCCCCCC)C(=O)NCCN.Cl.Cl (stereo not drawn) [8a]	111.6 µM	223 µM	55.9 µM	111.6 µM	93.1 µM	13.9 µM	>890 µM	24.4 µM	>890 µM
CCCCCCCCCC(=O)OC(C(=O)NCCN)C(OC(=O)CCCCCCCCC)C(=O)NCCN.Cl.Cl (stereo not drawn) [8b]	12.7 µM	33.3 µM	12.7 µM	6.3 µM	6.3 µM	3.1 µM	>810 µM	2.3 µM	>810 µM
